Measurements as given in patent EP0037224A1, “Rare earth metal carboxylates, their use as antimicrobial agents, and medicinal, cosmetic and cleansing compositions containing them” (THE PROCTER & GAMBLE COMPANY, priority 1980, dated 1981).

What was measured:
E. coli = assay: Minimum Bactericidal Concentration test; type: cell-based; settings: 10-minute contact with the test agent at 37°C; at least a 3 log unit reduction in viable cell count
S. aureus = assay: Minimum Bactericidal Concentration test; type: cell-based; settings: 10-minute contact with the test agent at 37°C; at least a 3 log unit reduction in viable cell count
molds = settings: cited from earlier work
Staphylococcus = settings: cited from earlier work

| SMILES | Minimum Bactericidal Concentration E. coli (E. coli) | Minimum Bactericidal Concentration S. aureus (S. aureus) | concentration that inhibits molds (molds) | concentration that inhibits Staphylococcus (Staphylococcus) |
| --- | --- | --- | --- | --- |
| O.O.O.O.O.O.O.O.O=S(=O)([O-])[O-].O=S(=O)([O-])[O-].O=S(=O)([O-])[O-].[La+3].[La+3] [La2(SO4)3.8H2O] | >7100 ppm | >7100 ppm | – | – |
| O.O.O.O.O.O.O=[N+]([O-])[O-].O=[N+]([O-])[O-].O=[N+]([O-])[O-].[La+3] [La(NO3)3.6H2O] | >4300 ppm | >4300 ppm | – | – |
| O.O.O.O.O.O.[Cl-].[Cl-].[Cl-].[La+3] [LaCl3.6H2O] | >3500 ppm | >3500 ppm | – | – |
| O=[N+]([O-])[O-].O=[N+]([O-])[O-].O=[N+]([O-])[O-].[Ce+3] [cerium nitrate] | – | – | 1000 ppm | 1000 ppm |
